Measurements reported in the NIST ThermoML archive (doi:10.1016/j.tca.2010.05.012).

Assay: molar heat capacity at constant pressure
Settings: Liquid, Large sample (1 g) DSC

CC(C)O [propan-2-ol]
molar heat capacity at constant pressure [J/K/mol]
Settings	100 kPa	20000 kPa	40000 kPa
253.15 K	129.4	126.1	125.8
258.15 K	130.6	128.3	127.3
263.15 K	132.6	130.7	129.2
268.15 K	135	133.4	131.5
273.15 K	138	136.3	134
278.15 K	141.4	139.4	136.8
283.15 K	145.1	142.6	140
288.15 K	148.9	146	143.3
293.15 K	152.9	149.6	146.9
298.15 K	157	153.3	150.7
303.15 K	161.1	157.1	154.7
308.15 K	165	161.1	159
313.15 K	168.6	165	163.3
318.15 K	171.9	169.1	167.8
323.15 K	174.9	173.2	172.4
